Test results published in article PMC12196476, “New Nitrogen-, Oxygen-, and Sulfur-Containing Heterocyclic Compounds as Anti-Colon Cancer Agents: Synthesis, Multitargeted Evaluations, Molecular Docking Simulations and ADMET Predictions” (Pharmaceuticals, 2025).

Key:
[1] = DPPH radical scavenging assay; conditions: three independent experiments; read-out: Mean IC50 (mM) for initial DPPH radicals ± SD
Protocol: The antioxidant activities of the studied compounds were assessed using the 1,1-diphenyl-2-picrylhydrazyl (DPPH) radical scavenging method as detailed by Bersuder et al.. The results were expressed as IC50 (mM)—the concentration of the test compound required to neutralize 50% of DPPH radicals.
The antioxidant efficiencies of target compounds were determined using the 1,1-diphenyl-2-picrylhydrazyl (DPPH) radical scavenging method as detailed by Bersuder et al.. […]
S3.2. Evaluation of Biological Activities.
S3.2.1. In vitro DPPH radical scavenging assay.
The antioxidant efficiencies of compounds—3a−e, 8, 9a−c, 13, 14, 17, 18a−h, 20, 22, 23, and 25—were
determined using the 1,1-diphenyl-2-picrylhydrazyl (DPPH) radical scavenging method as
detailed by Bersuder et al.. Fundamentally, the purple color of the stabilized DPPH radical
fades in the presence of an antioxidant, thus, the change of absorbance can be followed
spectrophotometrically at 519 nm. In the assay, equal volumes (0.5 mL) of DPPH ethanolic solution
and each compound (0-2 mg/mL in DMSO) or butylated hydroxytoluene (BHT) as the reference
were mixed well by shaking. The negative control consisted of the same amount of DMSO and
DPPH solution. After, incubation all mixtures at room temperature in the dark for one hour, the
absorbance of the residual DPPH radicals was measured at 519 nm using the UV‐vis
spectrophotometer. The DPPH radical scavenging activity of each compound (%) was calculated
Scavenging activity = (1 − Acompound/AControl) * 100, where Acompound and Acontrol the absorbance values
of each tested compound (or BHT) and the negative control, respectively. The half maximal
inhibitory concentration (IC50) for each compound in mg/mL was deduced by graphing the dose-
response curve relating the scavenging activity (%) to the compound concentration. Data points
represent the mean ± standard deviation (SD) of three independent determinations.

[2] = molecular target: PDK-1 (Homo sapiens, UniProt Q15118); experiment: In vitro PDK-1 inhibition assay (Kinase-Glo luminescent kinase kit); assay type: biochemical; conditions: for inhibition at 100 µg/mL: three replicates, read-out: Mean Inhibition Percent ± SD, PDK-1; for IC50: three independent experiments, read-out: Mean IC50 µM ± SD, PDK-1
Protocol: Principally, the PDK-1 inhibitory activities were evaluated using the non-radioactive Kinase-Glo™ Luminescent Kinase Kit (Promega Corporation, Madison, WI, USA) following the instructions of the manufacturer.
S3.2.2. In vitro PDK-1 inhibition assay.
The PDK-1 inhibitory activities of the test compounds were evaluated using the non-radioactive
Kinase-Glo™ Luminescent Kinase kit (Promega Corporation, Madison, WI, USA), following the
manufacturer’s protocol. Briefly, 5 μL of assay buffer—containing 10 × 250 mM Tris-HCl, 50 mM
MgCl2, 5 mM ethyleneglycol-bis(β-aminoethylether)-N,N,N′,N′-tetraacetic acid (EGTA), 10 mM
ethylenedi- aminetetraacetic acid (EDTA), and 10 mM dithiothreitol (DTT)—was added to each
well of a 96-well plate, along with 25 μL of distilled water. Subsequently, 5 μL of each test
compound at various concentrations (50, 100, 200 and 300 μg/mL in 1% DMSO) was added to the
respective wells, except for the two control wells, which received 5 μL of either PBS buffer or 1%
DMSO. Then, 5 μL of pyruvate dehydrogenase E1 (PDH E1) protein (10 μM) and 5 μL of ATP
(10 μM) were added to each well. To initiate phosphorylation, 5 μL of PDK-1 (20 μM) in protein
buffer (1 mM MgCl2, 2000 mM KCl, 40 mM K3PO4) was added to all the wells except the control
wells, which received 5 μL of protein buffer instead. The plate was then mixed thoroughly and
incubated at 37 °C for 30 minutes. After incubation, 50 μL of kinase-Glo® reagent was added to each
well, followed by a 10-minute incubation at room temperature with gentle shaking to stabilize the
luminescent signal. Luminescence was then measured using a microplate reader.
The IC50 value—defined as the concentration of a compound required to reduce luminescence by
50%, compared to untreated control wells—was determined for each compound from the
corresponding dose–response curve generated by plotting PDK-1 inhibition (%) versus compound
concentration. Sodium dichloroacetate (SDA, 1000 μM) was used as a reference PDK-1inhibitor. […]

[3] = molecular target: recombinant human LDHA protein (Homo sapiens, UniProt P00338); experiment: In vitro LDHA inhibitory assay (NADH consumption); assay type: biochemical; conditions: for inhibition at 100 µg/mL: three replicates, read-out: Mean Inhibition Percent ± SD, LDHA; for IC50: three independent experiments, read-out: Mean IC50 µM ± SD, LDHA
Excerpt: The LDHA inhibitory efficiencies were investigated on Spectramax M2 spectrofluorometer via measuring the amounts of the consumed NADH^40 using an NAD^+/NADH quantification kit. […]
S3.2.3. In vitro LDHA inhibitory assay.
The LDHA inhibitory activity of the test compounds was investigated using Spectramax M2
spectrofluorometer by measuring the amounts of the consumed NADH [42] employing
NAD+/NADH quantification kit. Briefly, the assay medium containing various concentrations of
each test compound (50, 100, 200 and 300 μg/mL) was incubated in assay medium composed of 20
mM of HEPES-K+ buffer (pH 7.2), 20 μM of NADH, 2 mM of pyruvate and 10 ng of purified
recombinant human LDHA protein for 10 min utes. The activity of LDHA would result in reduction
of pyruvate into lactate with concomitant oxidation of NADH to NAD +. Since NADH (reduced
LDHA, could be inversely quantified by monitoring the change in the intensity of the fluorescence
at 340 nm over a 10-minute period. The rate of the fluorescence change (slope) in treated samples
was compared to that obtained from negative control experiment (100 % enzymatic activity) to
determine the percentage of inhibition. The IC50 value—defined as the compound concentration
required to reduce the luminescence by 50%, compared to untreated control wells—was
determined for each compound from the corresponding dose–response curve generated by
plotting LDHA inhibition (%) against compound concentration.
was used as the reference LDHA inhibitor. […]

[4] = test system: LoVo colon carcinoma cells; experiment: Cell viability, LDH release assay, LoVo; conditions: Homo sapiens, LoVo, 48 h; for viability at 100 µg/mL: read-out: Mean % of viable cells ± SD, LoVo, 100 µg/mL, 48 h, LDH release assay; for IC50: read-out: Mean IC50 Values in µM ± SD, LoVo cells
Protocol: (§1) The studied compounds were also screened for their cytotoxic effects on HCT-116 and LoVo colon carcinoma cells, as well as normal HUVECs, using the standard LDH assay at a concentration of 100 µg/mL.
(§2) The antiproliferative activities of the newly synthesized compounds 3a–e, 8, 9a–c, 13, 14, 17, 18a–h, 20, 22, 23 and 25 were examined on human colon HCT-116 and LoVo cell lines as well as HUVEC (American Type Culture Collection, Manassas, VA, USA). […]
(§3) S3.2.4. Cell culture and viability assay.
(§4) The cytotoxic activities of the newly synthesized compounds (3a-e, 8, 9a-c, 13, 14, 17, 18a-h, 20, 22,
(§5) 23, and 25) were examined on human colon cancer cell lines HCT-116 and Lovo (American Type
(§6) Culture Collection, USA). Various concentrations (50, 100, 200, and 400 μg/mL) of test compounds
(§7) were prepared in Dulbecco’s Modified Eagles Medium (PAN-Biotech, Barcelona, Spain),

[5] = test system: HCT-116 colon carcinoma cells; experiment: Cell viability, LDH release assay, HCT-116; conditions: Homo sapiens, HCT-116, 48 h; for viability at 100 µg/mL: read-out: Mean % of viable cells ± SD, HCT-116, 100 µg/mL, 48 h, LDH release assay; for IC50: read-out: Mean IC50 Values in µM ± SD, HCT-116 cells
Protocol: as §1, §2, §3, §4, §5, §6, §7

[6] = Cell viability, LDH release assay, normal HUVECs; conditions: human, normal HUVECs, Mean % of viable cells ± SD, HUVEC
Protocol: as §1, §2
medium served used as negative and positive controls, respectively. Percentages of viable cells […]
were calculated based on relative optical density (OD) values (at 550 nm) for compound-treated […]
wells (final concentration of 100 μg/mL), compared to the negative control, and expressed as mean value (%) ± SD from two replicates. Graphing dose-response curves representing the compound […]
concentration versus the percentages of viable cells was also conducted to deduce the half - […]
Additionally, the safety profiles of the studied compounds were assessed against normal cells […]
(HUVECs) at final concentration of 100 μg/mL . HUVECs were grown in Dulbecco’s Modified Eagle’s Medium supplemented with 10% FBS, 2 mM glutamine (Sigma Aldrich), 100 units/mL penicillin and […] streptomycin (Life Technologies; Paisley, UK). […]

PDK-1, sequence (Q15118 29-436): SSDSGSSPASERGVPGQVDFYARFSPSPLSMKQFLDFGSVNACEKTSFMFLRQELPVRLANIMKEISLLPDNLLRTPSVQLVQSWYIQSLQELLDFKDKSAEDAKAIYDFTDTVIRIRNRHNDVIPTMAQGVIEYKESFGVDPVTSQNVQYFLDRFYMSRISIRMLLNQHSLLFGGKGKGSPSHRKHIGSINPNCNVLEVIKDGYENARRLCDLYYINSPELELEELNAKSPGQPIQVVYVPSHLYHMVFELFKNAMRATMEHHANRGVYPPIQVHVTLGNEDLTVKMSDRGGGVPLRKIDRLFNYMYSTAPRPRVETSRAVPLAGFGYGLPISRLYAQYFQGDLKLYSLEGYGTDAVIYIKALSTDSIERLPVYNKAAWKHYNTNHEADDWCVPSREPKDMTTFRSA

IC50 [1] [mM] | inhibition at 100 µg/mL [2] [%] | IC50 [2] [µM] | inhibition at 100 µg/mL [3] [%] | IC50 [3] [µM] | IC50 [4] [µM] | IC50 [5] [µM] | Compound | viability at 100 µg/mL [4] [%] | viability at 100 µg/mL [5] [%] | viability at 48 h, 100 µg/mL [6] [%]
0.522 ± 0.025 | 94.7 ± 2.33 | 147 ± 5.95 | 82.8 ± 3.18 | 167 ± 10.1 | 190 | 170 | COc1cc(OC)c(/C=N/c2sc3c(c2C#N)CCCC3)c(OC)c1 [Compound 3b, (E)-2-((2,4,6-Trimethoxybenzylidene)amino)-4,5,6,7-tetrahydrobenzo[b]thiophene-3-carbonitrile] | < 29 | < 29 | ~90
0.214 ± 0.027 | 25.1 ± 3.04 | – | 25.8 ± 2.48 | – | – | – | CCOC(=O)c1c(/N=C/c2cc(Br)c(O)c(OC)c2)sc2c1CCC(c1ccccc1)C2 (stereo not drawn) [Compound 3a, (E)-Ethyl2-((3-bromo-4-hydroxy-5-methoxybenzylidene)amino)-6-phenyl-4,5,6,7-tetrahydrobenzo[b]thiophene-3-carboxylate] | 57.7 ± 1.53 | 60.7 ± 3.06 | 85 ± 1.73
0.327 ± 0.007 | 80.5 ± 4.95 | 192 ± 5.57 | 37 ± 2.83 | 378 ± 3.98 | 292.1 ± 1.17 | 293 ± 5.38 | COc1cc2nc(C)n(C3CCCCC3)c(=O)c2cc1OC [Compound 14, 3-Cyclohexyl-6,7-dimethoxy-2-methylquinazolin-4(3H)-one] | 13 ± 1.14 | 12.5 ± 0.71 | 95 ± 1.82
0.658 ± 0.016 | 65 ± 3.46 | – | 12.2 ± 1.98 | – | 202 ± 7.82 | 238 ± 8.12 | COc1cc(/C=N/n2c(C)nc3cc(OC)c(OC)cc3c2=O)ccc1O [Compound 18d, (E)-3-((4-Hydroxy-3-methoxybenzylidene)amino)-6,7-dimethoxy-2-methylquinazoli-N-4(3H)-one] | 30.7 ± 4.24 | 38 ± 2 | 86.3 ± 1.53
0.65 ± 0.076 | 39.5 ± 2.12 | – | 27.2 ± 2.48 | – | 437.3 ± 1.51 | 511 ± 5.61 | COc1cc(C=C(NC(=O)c2ccccc2)c2n[nH]c(=S)o2)ccc1O [Compound 22, N-(2-(4-Hydroxy-3-methoxyphenyl)-1-(5-thioxo-4,5-dihydro-1,3,4-oxa-diazol-2-yl)vinyl)benzamide] | 29.5 ± 2.12 | 40.5 ± 3.54 | 79 ± 2
0.238 ± 0.006 | 66 ± 1.73 | – | 22.2 ± 1.13 | – | – | – | COc1ccc(/C=N/n2c(C)nc3ccc(F)cc3c2=O)cc1O [Compound 18g, (E)-6-Fluoro-3-((3-hydroxy-4-methoxybenzylidene)amino)-2-methylquinazolin-4(3H)-one] | 74.7 ± 2.52 | 58.7 ± 3.06 | 88 ± 2.65
1.81 ± 0.115 | 30.1 ± 1.56 | – | 33.4 ± 1.98 | – | – | – | CCOC(=O)c1sc(/N=C/c2cc(OC)c(OC)c(OC)c2)nc1C [Compound 9b, Ethyl(E)-4-methyl-2-((3,4,5-trimethoxybenzylidene)amino)thiazole-5-carboxylate] | 60.3 ± 2.83 | 54 ± 4.58 | 81.7 ± 2.52
1.82 ± 0.188 | 40.5 ± 2.76 | – | 40.2 ± 3.18 | – | – | – | COc1cc2nc(C)n(-c3ccc(-c4nc5ccccc5s4)cc3)c(=O)c2cc1OC [Compound 13, 3-(4-(Benzo[d]thiazol-2-yl)phenyl)-6,7-dimethoxy-2-methylquinazolin-4(3H)-one] | 86.5 ± 2.12 | 71.5 ± 2.12 | 84 ± 2.33
0.606 ± 0.015 | 44.7 ± 1.53 | – | 21.1 ± 0.99 | – | – | – | COc1cc2nc(C)n(/N=C/c3ccc(C(F)(F)F)cc3)c(=O)c2cc1OC [Compound 18c, (E)-6,7-Dimethoxy-2-methyl-3-((4-(trifluoromethyl)benzylidene)amino)quinazolin-4(3H)-one] | 63 ± 3 | 71.3 ± 6.51 | 91.3 ± 2.08

Compound | IC50 [1] [mM] | inhibition at 100 µg/mL [2] [%] | IC50 [2] [µM] | inhibition at 100 µg/mL [3] [%] | IC50 [3] [µM] | IC50 [4] [µM] | IC50 [5] [µM] | viability at 100 µg/mL [4] [%] | viability at 100 µg/mL [5] [%] | viability at 48 h, 100 µg/mL [6] [%]
CCOC(=O)c1sc(NC(=O)/C(=C/c2ccc(OC(C)=O)c(OC)c2)NC(=O)c2ccccc2)nc1C [Compound 20, Ethyl (Z)-2-(3-(4-Acetoxy-3-methoxyphenyl)-2-benzamido-acrylamido)-4-methylthiazole-5-carboxylate] | 0.745 ± 0.027 | 28.2 ± 1.06 | – | 16.9 ± 1.27 | – | – | – | 51 ± 2.83 | 49 ± 2.83 | 73 ± 2.75
